# Measurements taken from PubChem BioAssay AID449750 (Broad Institute, 2010).
# Activity calls are given as the source filed them. How the calls were made is not given here.
# Experiment: non-covalent RecA intein splicing inhibitors, dose response, biochemical, cell-free, fluorescence, secondary screen (AID 449750)
row,SMILES,AC50
1,O=C(Cc1ccccc1Cl)NC1(O)C(=O)c2ccccc2C1=O,7.63 µM
2,CC1=NN(c2ccccc2)C(=O)/C1=C/c1cccc(C)c1,4.14 µM
3,COc1ccc2ccc3c(c2c1)N=C[C@]1(O3)N(C)c2ccccc2C1(C)C,> 38 µM (inactive)
4,Oc1ccc(N=Cc2sc3ccccc3c2Cl)cc1,> 38 µM (inactive)
5,Cn1c(/N=C/c2c(O)ccc3ccccc23)nc2ccccc21,10.6 µM
6,C/C(CC(=O)Nc1cccnc1)=N\NC(=O)c1ccc([N+](=O)[O-])c(Cl)c1,> 38 µM (inactive)
7,c1cncc(CNc2ncnc3sc4c(c23)CCCC4)c1,> 38 µM (inactive)
8,Cc1ccc(C2=NN(C(=O)CCl)C(c3cccs3)C2)o1 (stereo unspecified),> 38 µM (inactive)
9,Cc1c(-c2nn(C)c(=O)c3ccccc23)oc2ccc(F)cc2c1=O,3 µM
10,Cc1ccccc1CS(=O)(=O)c1snnc1C,> 38 µM (inactive)
11,c1ccc(Nc2nc(NCc3ccco3)c3ccccc3n2)cc1,10.8 µM
12,Cc1ccc(S(=O)(=O)N(C(=O)c2ccncc2)c2ccc(OC(=O)c3ccncc3)c3ccccc23)cc1,4.13 µM
13,O=[N+]([O-])c1cncc([N+](=O)[O-])c1Nc1cccc(O)c1,> 38 µM (inactive)
14,Cc1nnc(NC(=O)c2nc(S(=O)(=O)Cc3ccccc3)ncc2Cl)s1,26.5 µM
15,O=c1cc(-c2ccc(Cl)cc2)[nH][nH]1,14.2 µM
16,CCOC(=O)c1ccc(CC2S/C(=C(\C#N)C(C)=O)NC2=O)cc1 (stereo unspecified),> 38 µM (inactive)
17,CC(C)c1[nH]nc2c1C1(CCN(Cc3ccccc3)CC1)C(C#N)=C(N)O2,> 38 µM (inactive)
18,Cc1ccc(-c2noc(-c3ccccc3C(=O)N3CCOCC3)n2)cc1,> 38 µM (inactive)
19,O=C(c1ccco1)c1coc2c1cc(O)c1ccccc12,26.2 µM
20,COc1ccc(C(N)c2nccc3cc(OC)c(OC)cc23)cc1OC (stereo unspecified),> 38 µM (inactive)
21,O=C(/C=C/c1ccccc1)c1ccc2c3c(cccc13)CC2,3.7 µM
22,CN1c2ccc(C=O)c3c(C=O)ccc(c23)N(C)C1(C)C,> 38 µM (inactive)

row,SMILES,AC50
1,CCOc1cc(C2C(C#N)=C(N)Oc3n[nH]c(-c4ccccc4)c32)ccc1O (stereo unspecified),20.6 µM
2,CCSc1nnc(NC(=O)c2nc(S(=O)(=O)Cc3ccc(F)cc3)ncc2Cl)s1,> 38 µM (inactive)
3,O=C1C(Cl)=C(Nc2ccc(O)cc2)C(=O)c2ccccc21,2.7 µM
4,O=c1[nH]cc(N=Cc2cc([N+](=O)[O-])ccc2O)c(=O)[nH]1,> 38 µM (inactive)
5,Cn1cnc([N+](=O)[O-])c1Sc1nnc(-c2cccnc2)n1C,> 38 µM (inactive)
6,CCN(c1ccccc1)c1cc2ccccc2c(=O)[nH]1,> 38 µM (inactive)
7,COc1ccc(/C=C2/C(=O)N(c3ccccc3)N=C2C)c(OC)c1,18.5 µM
8,CCc1ccc(S(=O)(=O)/N=C2\C=C(NS(=O)(=O)c3ccccc3)C(=O)c3ccccc32)cc1,4.45 µM
9,CC(Nc1c[nH]c(=O)[nH]c1=O)c1ccccc1 (stereo unspecified),> 38 µM (inactive)
10,COc1ccc(OCc2cc(C(=O)N3CCCC(OC)C3)no2)c2ccccc12 (stereo unspecified),> 38 µM (inactive)
11,CCOC(=O)c1nnc(-c2ccccc2)nc1Sc1c(Cl)cccc1Cl,> 38 µM (inactive)
12,CCCCCCCCCCOC(=O)Cn1c(COc2cccc(OC)c2)[n+](C)c2ccccc21,9.12 µM
13,COc1ccc(C(=O)c2c(C(F)(F)F)oc3c2C(=O)c2ccccc2C3=O)cc1OC,> 38 µM (inactive)
14,CC(C)(C)c1csc(NC(=O)c2c(F)c(F)c(F)c(F)c2F)n1,16.3 µM
15,CC(=O)NC1C(=O)N(CCN2CCOCC2)c2ccc(C)cc21 (stereo unspecified),21.6 µM
16,Cc1ccc(N2C(=O)NC(=O)/C(=C/c3ccc(OC(=O)c4cccs4)cc3)C2=O)cc1,5.9 µM
17,Cc1cc(-c2[nH]nc3c2C(c2cccc(O)c2)C(C#N)=C(N)O3)c(C)s1 (stereo unspecified),28.8 µM
18,O=C(CCl)NCc1c(Cl)cccc1-n1cccc1,7.58 µM
19,Cc1cccc(C)c1-n1cccc1/C=C1\SC(=S)N(c2cccc(C(=O)O)c2)C1=O,7.18 µM
20,OCC[n+]1c2ccccc2nc2ccc(N3CCOCC3)cc21,26.5 µM
21,COc1ccc(NC(=O)Nc2ccc(O)c3ccccc23)cc1,39.3 µM
22,O=C(CCl)c1ccc2c(c1)CCN2C(=O)C1CCCCC1,> 38 µM (inactive)

row,SMILES,AC50
1,COC(=O)[C@@H]1[C@@H](C(=O)OC)C2(c3ccccc3-c3ccccc32)N(c2ccc(Cl)cc2)N1C#N,34.3 µM
2,CCc1ccc(S(=O)(=O)Nc2ccc(O)c3ccccc23)cc1,0.535 µM
3,COC(=O)c1ccccc1OC(=O)c1ccc(Br)o1,> 38 µM (inactive)
4,CC(C)(C)c1csc(Sc2ccc([N+](=O)[O-])cn2)n1,14.2 µM
5,O=C(CCl)Nc1ccc(N2CCCCCC2)cc1,6.59 µM
6,O=C(/C=C/c1ccco1)c1ccc(NC(=O)C23CC4CC(CC(C4)C2)C3)cc1,12.9 µM
7,Cc1ccc(C(=O)N/N=C\c2cc(Br)c(Br)o2)cn1,15.7 µM
8,O=C(CCl)N(c1ccccc1)c1ccccc1,5.75 µM
9,N#CCCn1[nH]c(-c2ccccc2)cc1=O,8.16 µM
10,Cc1ccc(-n2nc(C)c(NC(=O)CCl)c2C)cc1C,16.1 µM
11,O=C(CCN1C(=O)/C(=C\c2ccccc2F)SC1=S)Nc1ccc(C(=O)O)c(O)c1,14.7 µM
12,O=[N+]([O-])/C(C(Cl)=C(Cl)Cl)=C(/Sc1ccccc1)N1CCCCC1,> 38 µM (inactive)
13,O=C(CCl)N(c1ccccc1)c1c[nH]c2ccccc12,1.46 µM
14,COC(=O)[C@@H]1C[C@]2(OC(=O)c3ccccc3)C=CC(=O)C[C@@H]2N1C(=O)OCc1ccccc1,24.5 µM
15,Cc1ccccc1Nc1cc2ccccc2c(=O)[nH]1,1.54 µM
16,O=C(CCS(=O)NCc1ccccc1)NCc1ccccc1 (stereo unspecified),> 38 µM (inactive)
17,CC(=O)C1=C(c2ccc(Br)cc2)C(=O)c2ccccc2C1=O,7.18 µM
18,COc1ccc(CC2=CC(=O)c3ccccc3C2=O)cc1,6.95 µM
19,Cc1c(C#N)c(NC(=O)CCl)n(Cc2ccc(F)cc2)c1C,3.69 µM
20,CCOc1cc(C(c2c(C)[nH][nH]c2=O)c2c(C)[nH][nH]c2=O)cc(Br)c1OC,15.8 µM
21,CC1=NN(c2ccc(Cl)cc2)C(=O)C1,3.71 µM
22,Cc1cccc(Cn2ncc(Cl)c(Cl)c2=O)c1,18 µM

row,SMILES,AC50
1,O=S(=O)(O)Oc1c[nH]c2ccccc12,5.48 µM
2,O=S(=O)(Nc1ccc(O)c2ccccc12)c1ccc(OC(F)(F)F)cc1,0.779 µM
3,CC(C)[C@H](NC(=O)Nc1ccc(Oc2ccccc2)cc1)C(=O)O,> 38 µM (inactive)
4,O=c1[nH]c(/C=C/c2cccnc2)c([N+](=O)[O-])c(=O)[nH]1,> 38 µM (inactive)
5,CC1=NN(c2ccc(Cl)c(C(=O)O)c2)C(=O)/C1=C\c1ccc(-c2ccc(C(=O)O)cc2)o1,34.1 µM
6,C[n+]1c2ccccc2nc2ccc(NCCO)cc21,10.1 µM
7,Cc1ccc(-n2nc(C)c3c2OC(N)=C(C#N)C3c2cccs2)cc1 (stereo unspecified),21.1 µM
8,O=C(CCl)Nc1cn(-c2ccccc2)nc1-c1ccc(F)cc1,2.82 µM
9,CC(=O)N(C1=C(N)C(=O)c2ccccc2C1=O)c1ccccc1,10.6 µM
10,Cc1cc(F)ccc1S(=O)(=O)N(C(=O)c1ccncc1)c1ccc(OC(=O)c2ccncc2)cc1,> 38 µM (inactive)
11,N#CC1=C(N)C(C#N)(C#N)C(c2cccnc2)C2CN(C(=O)OCc3ccccc3)CC=C12 (stereo unspecified),> 38 µM (inactive)
12,COC1(OC)C(/C=C/c2ccc(C)cc2)C(C#N)(C#N)C1(OC)OC (stereo unspecified),> 38 µM (inactive)
13,Cc1[nH]n(-c2ccccc2)c(=O)c1C(c1cccc([N+](=O)[O-])c1)c1c(C)[nH]n(-c2ccccc2)c1=O,8.53 µM
14,CCOc1cc(C(c2c(C)[nH][nH]c2=O)c2c(C)[nH][nH]c2=O)ccc1OS(=O)(=O)c1ccc(C)cc1,4.78 µM
15,Cc1ccc2c(c1)c1c3n2CCN(C(=O)CCl)C3CCC1 (stereo unspecified),3.29 µM
16,COc1ccc(CNc2ccc3cn[nH]c3c2)c(OC)c1OC,14 µM
17,CCOc1cc(/C=C2\C(=O)N(c3ccc(C(N)=O)cc3)N=C2C)ccc1OC(=O)c1cccs1,2.76 µM
18,C/C(CC(=O)Nc1ccc(F)cc1)=N\NC(=O)COc1ccccc1,> 38 µM (inactive)
19,Cc1cccc(C)c1NC(=O)c1nc(S(=O)(=O)Cc2ccccc2)ncc1Cl,> 38 µM (inactive)
20,CC1=NN(c2ccccc2)C(=O)/C1=C/c1cccs1,9.94 µM
21,CC(C)Oc1cccc(C(=O)C2CCCN(C(=O)c3csnn3)C2)c1 (stereo unspecified),> 38 µM (inactive)
22,CCCCCc1cc(=O)oc2c(C(CCN3CCCC(C)C3)c3ccc(N(C)C)cc3)c(OC)cc(OC)c12 (stereo unspecified),> 38 µM (inactive)

row,SMILES,AC50
1,O=C1/C(=C\c2cc([N+](=O)[O-])ccc2O)SC(=S)N1Cc1ccc(Cl)cc1,13.8 µM
2,COC(=O)c1ccc(-c2ccc(C(c3c(C)[nH][nH]c3=O)c3c(C)[nH][nH]c3=O)o2)cc1,1.6 µM
3,NC(=O)C1CCN(C2=C(Cl)C(=O)c3ccccc3C2=O)CC1,1.97 µM
4,COc1cccc(Nc2c([N+](=O)[O-])cncc2[N+](=O)[O-])c1,> 38 µM (inactive)
5,O=c1[nH]c2ccc(Cl)cc2c(-c2ccccc2)c1SC(=S)N1CCCCC1,> 38 µM (inactive)
6,Cc1[nH]nc2c1C1(CCN(C(=O)OCc3ccccc3)CC1)C(C#N)=C(N)O2,> 38 µM (inactive)
7,CCOC(=O)Cc1[nH]nc2c1C(c1cccc(OC)c1OC)C(C#N)=C(N)O2 (stereo unspecified),11.5 µM
8,C#CCOc1ccc(/C=C2/C(=O)N(c3cccc(C(=O)O)c3)N=C2C)cc1OC,2.79 µM
9,O=C1CC(c2ccccc2)=NN1c1ccc([N+](=O)[O-])cc1,7.43 µM
10,COc1cc(C(c2c(C)[nH][nH]c2=O)c2c(C)[nH][nH]c2=O)cc(Cl)c1O,2.2 µM
11,O=c1c2ccccc2nc(/C=C/c2cccnc2)n1Cc1ccccc1,13.6 µM
12,CN(C1=C(NC(=O)c2ccc(Cl)cc2)C(=O)c2ccccc2C1=O)c1ccccc1,15 µM
13,COC(=O)c1ccc(C(c2c(C)[nH][nH]c2=O)c2c(C)[nH][nH]c2=O)cc1,> 38 µM (inactive)
14,C/C(=C\c1ccco1)C1C(C#N)=C(N)Oc2n[nH]c(-c3ccccc3)c21 (stereo unspecified),20.8 µM
15,N#Cc1cc(-c2ccccc2)nc(Oc2ccccc2)n1,> 38 µM (inactive)
16,CCN(CC)C(=O)c1ccc2c(c1)C1C(Cl)C(Sc3ccccc3[N+](=O)[O-])CC1C(C(=O)O)N2 (stereo unspecified),12.5 µM
17,N#CC1=C(N)Oc2n[nH]c(-c3cccs3)c2C1c1ccsc1 (stereo unspecified),3.98 µM
18,Cc1[nH]nc2c1C1(CCC(c3ccccc3)CC1)C(C#N)=C(N)O2 (stereo unspecified),> 38 µM (inactive)
